Data on one compound can be found in ChEMBL document CHEMBL3046332, “Ultrastructural effects of pyridalyl, an insecticidal agent, on epidermal cells of Spodoptera litura larvae and cultured insect cells Sf9” (J Pestic Sci, 2006).

The subject of assay [1] is Sf9. The assay can be described thus: Ultrastructural effect on Spodoptera frugiperda (fall armyworm) sf9 cells assessed as decrease in mitochondrial number at 1 uM measured 4 to 6 hr by electron microscopy. Format: functional, cell-based.
Assay [2] deals with Sf9. In words: Ultrastructural effect on Spodoptera frugiperda (fall armyworm) sf9 cells assessed as swollen mitochondria at 1 uM measured for 8 hr by electron microscopy. Format: functional, cell-based.
For assay [3], the system named is Spodoptera litura. The assay can be described thus: Insecticidal activity against Spodoptera litura larvae assessed as epidermal cell nuclear change at 100 ng measured after 2 hr by ultrastructural analysis/electron microscopy. Format: functional, organism-based.
Assay [4] concerns Spodoptera litura. The assay can be described thus: Insecticidal activity against Spodoptera litura larvae assessed as swollen mitochondria in epidermal cell at 100 ng measured after 6 hr by ultrastructural analysis/electron microscopy. Format: functional, organism-based.
Assay [5] deals with Spodoptera litura. The assay can be described thus: Insecticidal activity against Spodoptera litura larvae assessed as symptoms at 100 ng measured after 2 hr. In kind it is functional, organism-based.
Assay [6] relates to Spodoptera litura. The assay can be described thus: Insecticidal activity against Spodoptera litura larvae assessed as enlarged mitochondria in epidermal cell at 100 ng measured after 4 hr by ultrastructural analysis/electron microscopy. Format: functional, organism-based.
The subject of assay [7] is Spodoptera litura. In words: Insecticidal activity against Spodoptera litura larvae assessed as midgut and ganglia at 100 ng measured after 6 hr by ultrastructural analysis/electron microscopy. In kind it is functional, organism-based.
Assay [8] has as its system Spodoptera litura. In words: Insecticidal activity against Spodoptera litura larvae assessed as condensed and shrunken epidermal cell at 100 ng measured after 6 hr by ultrastructural analysis/electron microscopy. Format: functional, organism-based.
Assay [9] deals with Spodoptera litura. In words: Insecticidal activity against Spodoptera litura larvae assessed as diluted rough endoplasmic reticula in epidermal cell at 100 ng measured after 6 hr by ultrastructural analysis/electron microscopy. Format: functional, organism-based.
The test system of assay [10] is Spodoptera litura. The assay can be described thus: Insecticidal activity against Spodoptera litura larvae assessed as dorsal aorta at 100 ng measured after 6 hr by ultrastructural analysis/electron microscopy. Format: functional, organism-based.
In assay [11] the test system is Spodoptera litura. The assay can be described thus: Insecticidal activity against Spodoptera litura larvae assessed as shorten microvillous projections epidermal cell at 100 ng measured after 6 hr by ultrastructural analysis/electron. In kind it is functional, organism-based.
Assay [12] deals with Spodoptera litura. In words: Insecticidal activity against Spodoptera litura larvae assessed as decrease in mobility at 100 ng measured after 4 hr. In kind it is functional, organism-based.
Assay [13] has as its system Spodoptera litura. In words: Insecticidal activity against Spodoptera litura larvae assessed as paralysis at 100 ng measured after 6 hr. In kind it is functional, organism-based.
Assay [14] concerns Spodoptera litura. The assay can be described thus: Insecticidal activity against Spodoptera litura larvae assessed as condensed nuclei in epidermal cell at 100 ng measured after 4 hr by ultrastructural analysis/electron microscopy. In kind it is functional, organism-based.
For assay [15], the system named is Sf9. In words: Ultrastructural effect on Spodoptera frugiperda (fall armyworm) sf9 cells assessed as low density matrix mitochondria at 1 uM measured 4 to 6 hr by electron microscopy. In kind it is functional, cell-based.
Assay [16] concerns Sf9. In words: Ultrastructural effect on Spodoptera frugiperda (fall armyworm) sf9 cells assessed as enlarged mitochondria at 1 uM measured 4 to 6 hr by electron microscopy. Format: functional, cell-based.
In assay [17] the test system is Spodoptera litura. The assay can be described thus: Insecticidal activity against Spodoptera litura larvae assessed as diluted Golgi apparatus in epidermal cell at 100 ng measured after 6 hr by ultrastructural analysis/electron microscopy. Format: functional, organism-based.
In assay [18] the test system is Sf9. The assay can be described thus: Ultrastructural effect on Spodoptera frugiperda (fall armyworm) sf9 cells assessed as dissociation of polysomes and nuclear swelling at 1 uM measured 4 to 6 hr by electron microscopy. In kind it is functional, cell-based.
Assay [19] concerns Spodoptera litura. In words: Insecticidal activity against Spodoptera litura larvae assessed intracytoplasmic ultrastructures of the epidermal cell at 100 ng measured after 2 hr by ultrastructural analysis/electron microscopy. In kind it is functional, organism-based.
The subject of assay [20] is Spodoptera litura. The assay can be described thus: Insecticidal activity against Spodoptera litura larvae assessed as muscular and fat tissues underlying the epidermis at 100 ng measured after 6 hr by ultrastructural analysis/electron microscopy. Format: functional, organism-based. As to conditions: Adipose tissue.
Assay [21] concerns Sf9. The assay can be described thus: Ultrastructural effect on Spodoptera frugiperda (fall armyworm) sf9 cells assessed as mitochondria with disarranged cristae at 1 uM measured 8 hr by electron microscopy. Format: functional, cell-based.

The structures appear in SMILES notation. The source made the active and inactive calls. The calls are words filed in the database; no cut-off is given here.

In the case of `FC(F)(F)c1ccc(OCCCOc2c(Cl)cc(OCC=C(Cl)Cl)cc2Cl)nc1`, the outcome in the assay with Sf9 [1], with Sf9 [2], in the assay with Spodoptera litura [4], in the assay on Spodoptera litura [6], with Spodoptera litura [8] and in the assay with Spodoptera litura [9] was Active. The outcome in the assay on Spodoptera litura [11], in the assay on Spodoptera litura [12], in the assay with Spodoptera litura [13], in the assay on Spodoptera litura [14], with Sf9 [15] and in the assay with Sf9 [16] was Active. For the same compound, the outcome in the assay with Spodoptera litura [17], in the assay with Sf9 [18] and with Sf9 [21] was Active. The outcome in the assay on Spodoptera litura [3], in the assay with Spodoptera litura [5], in the assay on Spodoptera litura [7], in the assay with Spodoptera litura [10], in the assay with Spodoptera litura [19] and in the assay on Spodoptera litura [20] was inactive.
